Results on 2 molecules are retold here after US5110925A, “Pyridazinone derivatives” (Nippon Soda Co., Ltd., priority 1988, dated 1992).

One data set has as its target T1, PDE-III (Cavia porcellus, UniProt H0VIU9).
T1 construct: different forms of cyclic nucleotide phosphodiesterase from guinea pig left ventricular muscles; from tissue; host or cells: guinea pig left ventricular muscle, DEAE-cellulose fraction
T1 sequence (H0VIU9 1-1132): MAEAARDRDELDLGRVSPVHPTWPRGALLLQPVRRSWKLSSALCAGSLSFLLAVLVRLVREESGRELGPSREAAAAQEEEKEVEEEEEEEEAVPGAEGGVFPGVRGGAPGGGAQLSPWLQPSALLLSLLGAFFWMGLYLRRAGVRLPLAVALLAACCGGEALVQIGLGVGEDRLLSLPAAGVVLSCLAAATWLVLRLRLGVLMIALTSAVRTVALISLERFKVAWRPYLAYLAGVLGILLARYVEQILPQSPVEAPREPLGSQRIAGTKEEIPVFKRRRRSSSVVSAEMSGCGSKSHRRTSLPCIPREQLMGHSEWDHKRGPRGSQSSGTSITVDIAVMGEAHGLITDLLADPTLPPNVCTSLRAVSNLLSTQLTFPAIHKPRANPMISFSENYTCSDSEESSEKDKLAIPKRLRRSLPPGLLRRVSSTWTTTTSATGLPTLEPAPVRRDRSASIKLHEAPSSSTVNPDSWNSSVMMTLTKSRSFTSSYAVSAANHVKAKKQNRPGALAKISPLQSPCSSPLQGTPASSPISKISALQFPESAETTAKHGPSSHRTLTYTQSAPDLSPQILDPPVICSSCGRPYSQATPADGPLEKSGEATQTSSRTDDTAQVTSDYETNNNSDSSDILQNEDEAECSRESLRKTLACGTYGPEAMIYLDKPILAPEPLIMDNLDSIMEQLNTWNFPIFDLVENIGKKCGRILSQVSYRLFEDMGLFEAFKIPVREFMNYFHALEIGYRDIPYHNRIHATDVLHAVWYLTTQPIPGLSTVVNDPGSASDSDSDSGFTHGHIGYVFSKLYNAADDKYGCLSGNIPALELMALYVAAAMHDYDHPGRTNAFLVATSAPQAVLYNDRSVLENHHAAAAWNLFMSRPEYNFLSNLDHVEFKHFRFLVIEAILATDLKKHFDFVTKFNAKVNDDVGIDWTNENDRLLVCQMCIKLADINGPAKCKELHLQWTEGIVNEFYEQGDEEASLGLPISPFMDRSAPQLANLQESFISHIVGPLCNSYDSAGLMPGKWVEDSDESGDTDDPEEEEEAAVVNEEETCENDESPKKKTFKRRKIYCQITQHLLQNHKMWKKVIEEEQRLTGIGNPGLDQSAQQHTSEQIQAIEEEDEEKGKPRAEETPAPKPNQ
In words: Inhibition of Phosphodiesterase PDE-III. The conditions noted are these: 1 mM 3H-cAMP substrate; read-out: phosphodiesterase inhibition IC50 PDE-III. The class given is biochemical, guinea pig (left ventricular muscles). The source says: (§1) The preparation of different forms of cyclic nucleotide phosphodiesterase from guinea pig left ventricular muscles was done by following the procedure of Weishaar, et al. (R. Weishaar, et al., Biochemical Pharmacology, 35, 787-800, 1986) with the minor modified method of Thompson, et al. (W. J. Thompson, et al., Advances in Cyclic Nucleotide Research, 10, 69-92, 1979). Briefly, the three active forms of phosphodiesterase (PDE-I, PDE-II, PDE-III) present in the ventricular muscles were discretely eluted from a DEAE-cellulose column (Whatman, DE-52, .phi. 2.5×20 cm) using a continuous 70-800 mM sodium acetate gradient.
(§2) The phosphodiesterase activity was assayed by minor modifications of the method described by Furutani et al. (Y. Furutani, et al., Journal of Antibiotics, 28, 558-560, 1975). Briefly, 1 mM ^3 H-cAMP was hydrolyzed by the phosphodiesterase and the unhydrolyzed ^3 H-cAMP which was separated from the formed 5'-AMP by a dry alumina (Merck, activity 1, neutral) was counted by a liquid scintillation counter.
(§3) The concentrations causing a 50% inhibition of the phosphodiesterase activity (IC50) were calculated from the concentration-inhibition curves.

For another data set, the target named is PDE-I. Description: Inhibition of Phosphodiesterase PDE-I. It is filed as biochemical, guinea pig (left ventricular muscles). The conditions noted are these: 1 mM 3H-cAMP substrate.
Excerpt: as §1, §2, §3

The next data set concerns mice. Description: Acute Toxicity in mice, oral single dose. It is filed as in vivo, mouse (male). The conditions noted are these: male mice, 300 mg/kg, p.o., 7 days observation. The source says: The acute toxicity of the test compounds was studied in male mice after oral administration of a single dose.
A further data set concerns the target T2, PDE-II (Cavia porcellus, UniProt A0A286XUV5).
T2 construct: different forms of cyclic nucleotide phosphodiesterase from guinea pig left ventricular muscles; from tissue; host or cells: guinea pig left ventricular muscle, DEAE-cellulose fraction
T2 sequence (A0A286XUV5 22-936): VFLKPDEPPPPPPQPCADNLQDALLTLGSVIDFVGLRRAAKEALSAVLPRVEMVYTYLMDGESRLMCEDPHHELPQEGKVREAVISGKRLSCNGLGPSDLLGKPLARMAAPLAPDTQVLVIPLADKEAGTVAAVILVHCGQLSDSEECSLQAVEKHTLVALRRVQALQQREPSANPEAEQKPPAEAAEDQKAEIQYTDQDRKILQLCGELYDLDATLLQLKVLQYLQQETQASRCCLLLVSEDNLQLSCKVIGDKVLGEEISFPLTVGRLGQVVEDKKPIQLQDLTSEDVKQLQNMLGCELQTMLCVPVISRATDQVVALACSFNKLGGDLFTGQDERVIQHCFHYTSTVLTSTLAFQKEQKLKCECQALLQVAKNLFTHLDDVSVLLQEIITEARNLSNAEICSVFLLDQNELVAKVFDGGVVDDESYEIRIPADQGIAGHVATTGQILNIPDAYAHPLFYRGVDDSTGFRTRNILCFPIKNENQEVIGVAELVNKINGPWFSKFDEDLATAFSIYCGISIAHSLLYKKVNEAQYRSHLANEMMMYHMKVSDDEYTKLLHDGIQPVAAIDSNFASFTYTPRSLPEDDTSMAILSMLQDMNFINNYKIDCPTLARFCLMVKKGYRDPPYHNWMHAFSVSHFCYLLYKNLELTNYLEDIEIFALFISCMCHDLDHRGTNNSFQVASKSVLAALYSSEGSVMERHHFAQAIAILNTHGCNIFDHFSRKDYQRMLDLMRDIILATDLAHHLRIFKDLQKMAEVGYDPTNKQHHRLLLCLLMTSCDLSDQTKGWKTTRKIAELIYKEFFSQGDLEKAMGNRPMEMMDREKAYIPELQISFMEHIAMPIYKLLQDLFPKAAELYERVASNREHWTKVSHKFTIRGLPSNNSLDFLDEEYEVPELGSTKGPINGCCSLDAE
Description: Inhibition of Phosphodiesterase PDE-II. The conditions noted are these: 1 mM 3H-cAMP substrate. The class given is biochemical, guinea pig (left ventricular muscles).
Excerpt: as §1, §2, §3

The test system of a further data set is Anesthetized Dogs. Description: Cardiotonic Action: Anesthetized Dogs. The class given is in vivo, dog (adult mongrel). The conditions noted are these: anesthetized dogs; for ED50: Canis lupus familiaris, iv, dose producing a 50% increase in LVdp/dtmax, read-out: LVdp/dtmax ED50; for % Changes in Heart rate / % Changes in Blood pressure: i.v.; for % Changes in Blood pressure: femoral arterial pressure. Here is the method: Adult mongrel dogs of either sex weighing 8 to 15 kg were used.
The animals were anesthetized with sodium pentobarbital (30 mg/kg, i.v.) and maintained by an intravenous infusion of the anesthetic at a rate of 4 mg/kg per hour.
A cuffed endotracheal tube was inserted and an artificial respirator installed. The animals were ventilated with room air in a tidal volume of 20 ml/kg at a rate of 20 brearhs per minute.
Cannulae were inserted into the femoral vein for a falling drop of a physiological saline or for an infusion of the anesthetic, and into the femoral artery for measuring arterial blood pressure with a pressure transducer. Heart rate was recorded with a heart rate counter triggered by the R wave of the electrocardiogram (ECG).
ECG in standard lead II was monitored with a bioelectric amplifier.
Left ventricular pressure was measured with a catheter tip pressure transducer inserted via the right carotid artery into the left ventricle. Left ventricular dp/dtmax was obtained by an electric differentiator.
The compounds were injected through the cannula in the femoral vein at a dose of 0.001-0.3 mg/0.1 ml/kg.

For another data set, the system named is guinea pig left atria. Description: Cardiotonic Action: Electrically Stimulating Isolated Guinea Pig Left Atria. On the set-up: species or system guinea pig (male Hartley). The conditions noted are these: Cavia porcellus; concentration causing a 50% increase in contractility; cumulative addition, 30° C.; read-out: contractility of guinea pig left atria EC50. On the procedure:
Male Hartley guinea pigs weighing 350-500 g were used.
The hearts were excised from the animals. The left atria were dissected from the hearts and mounted in an organ bath.
The atria were stimulated by square wave pulses of 3 msec duration and a voltage ranging from 1.2-fold to 1.5-fold of the threshold at a frequency of 60/min with an electric stimulator.
Resting tension was adjusted to 0.5 g and contraction was recorded on the Polygraph Systems with a force-displacement transducer.
All preparations were allowed to equilibrate with the bath medium for 90 to 120 min.

Values after ≈ are worked out from the molar mass of the structure shown.

As to `CC1(C)CC(=O)C=C(Nc2ccc(C3=NNC(=O)CC3)cc2)C1` [Compound 1], the IC50 (commonly the concentration needed to halve the response being measured) on PDE-III amounted to 1.2 µM. The molecule further showed an IC50 on PDE-I of 900 µM. The “mortality (number of dead animals/number of treated animals)” value with mice is given as 0/3. In addition, at PDE-II, the IC50 amounted to 250 µM. In the data set with Anesthetized Dogs, the ED50 was 0.043 mg/kg, the “% Changes in Heart rate” value worked out at 5% and the “% Changes in Blood pressure” value is listed as -1%. Besides, the EC50 with guinea pig left atria came to 0.23 µg/mL (≈ 0.739 µM).

On to `O=C1C=C(Nc2ccc(C3=NNC(=O)CC3)cc2)CCC1` [Compound 3], for which the IC50 on PDE-III was 0.47 µM. The molecule further returned an IC50 at PDE-I of 210 µM. For the same molecule, the “mortality (number of dead animals/number of treated animals)” value in the data set with mice is 0/3. This molecule had an IC50 against PDE-II of 180 µM. Besides, in the data set on Anesthetized Dogs, the ED50 stood at 0.009 mg/kg, the “% Changes in Heart rate” value stood at 2% and the “% Changes in Blood pressure” value was -4%. The EC50 in the data set with guinea pig left atria was 0.23 µg/mL (≈ 0.812 µM).
